The target in one assay is T1, PPARγ (Homo sapiens, UniProt P37231).
T1 construct: purchased Invitrogen Corporation, Carlsbad, Calif
T1 sequence (P37231 238-503 limits assumed): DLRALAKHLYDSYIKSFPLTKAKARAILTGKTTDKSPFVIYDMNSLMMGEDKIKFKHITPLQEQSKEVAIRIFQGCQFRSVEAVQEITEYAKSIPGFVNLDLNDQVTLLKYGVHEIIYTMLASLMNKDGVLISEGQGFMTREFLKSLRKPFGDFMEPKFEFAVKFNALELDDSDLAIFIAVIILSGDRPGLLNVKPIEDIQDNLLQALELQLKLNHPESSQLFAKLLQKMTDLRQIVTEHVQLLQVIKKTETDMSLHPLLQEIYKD
Put plainly: commercial PPARγ binding assay (Invitrogen; PPAR-LBD/Fluormone PPAR Green complex). The settings on record: for Binding to PPARγ (Fluormone displacement signal): mean of three experiments. The protocol: The ability of several exemplary compounds of the present invention, shown in Table A, to bind to PPARγ was measured using a commercial binding assay (Invitrogen Corporation, Carlsbad, Calif.) that measures the test compounds ability to bind with PPAR-LBD/Fluormone PPAR Green complex. These assays were performed on three occasions with each assay using four separate wells (quadruplicate) at each concentration of tested compound. The data are mean and SEM of the values obtained from the three experiments. […] Compounds were added at the concentrations shown, which range from 0.1-100 micromolar.

In assay [1] the test system is Male Dahl salt-sensitive rats. Put plainly: Antihypertensive action in hypertensive Dahl salt-sensitive rats (high salt diet), mean blood pressure by direct femoral arterial cannulation. Type of assay: in vivo, rat. The note with it: oral gavage daily, Compound 1 40 mg/kg/day, HCTZ 5 mg/kg/day. How it is done:
Male Dahl salt-sensitive rats were made hypertensive by feeding of a high salt diet (4% salt) for 3 weeks and then treated daily with the indicated dose of hydrochlorothiazide (HCTZ), compound 1, or the combination of HCTZ and compound 1, as compared to the vehicle alone (1% carboxymethylcellulose/0.01% Tween 20) by oral gavage for 8 days. Mean blood pressure was measured by direct femoral arterial cannulation under fed conditions on day 7 and after a 6 hour fast on day 8.
Referring to FIG. 2 and Table C above, the antihypertensive action of compound 1 is additive with hydrocholothiazide (HCTZ). Data are mean and (SEM) mean blood pressure taken by direct cannulation. N=5; * p<0.05 less than blood pressure in HCTZ-treated rats.

With `CCc1ccc(C(=O)COc2ccc(CC3(C)SC(=O)NC3=O)cc2)nc1` (stereo not drawn) [Compound 10], the “Binding to PPARγ (Fluormone displacement signal)” value on PPARγ (1 μM compound) is recorded as 240; at PPARγ (3 μM compound), 234; at PPARγ (10 μM compound), 219; at PPARγ (50 μM compound), 126; at PPARγ (100 μM compound), 93; on PPARγ (.1 μM compound), 245. Further, the “Binding to PPARγ (Fluormone displacement signal)” value on PPARγ (.3 μM compound) is 239.
Take `CCc1ccc(C(O)COc2ccc(CC3(C)SC(=O)NC3=O)cc2)nc1` (stereo not drawn) [Compound 5]: the “Binding to PPARγ (Fluormone displacement signal)” value on PPARγ (1 μM compound) was 228; at PPARγ (3 μM compound), 226; at PPARγ (10 μM compound), 212; on PPARγ (50 μM compound), 132; on PPARγ (100 μM compound) it was 106; on PPARγ (.1 μM compound), 235. In addition, the “Binding to PPARγ (Fluormone displacement signal)” value on PPARγ (.3 μM compound) is given as 230.
As for `CCc1ccc([C@@H](O)COc2ccc(CC3SC(=O)NC3=O)cc2)nc1` (stereo partly drawn) [Compound 2], the “Binding to PPARγ (Fluormone displacement signal)” value at PPARγ (1 μM compound) worked out at 238; at PPARγ (3 μM compound), 236; at PPARγ (10 μM compound), 223; at PPARγ (50 μM compound), 162; at PPARγ (100 μM compound), 136; on PPARγ (.1 μM compound), 231. For the same compound, the “Binding to PPARγ (Fluormone displacement signal)” value at PPARγ (.3 μM compound) was found to be 233. Also, the “binding to PPARγ (in words)” value on PPARγ (FIG. 1 and Table B) is “particularly poor binders”.
Take `CCc1ccc([C@H](O)COc2ccc(CC3SC(=O)NC3=O)cc2)nc1` (stereo partly drawn) [Compound 3]: the “Binding to PPARγ (Fluormone displacement signal)” value was found to be 203 on PPARγ (1 μM compound); 185 on PPARγ (3 μM compound); 134 at PPARγ (10 μM compound); 88 at PPARγ (50 μM compound); 77 at PPARγ (100 μM compound); 226 at PPARγ (.1 μM compound). Moreover, at PPARγ (.3 μM compound), the “Binding to PPARγ (Fluormone displacement signal)” value was determined as 221.
For `NS(=O)(=O)c1cc2c(cc1Cl)NCNS2(=O)=O` [HCTZ, hydrochlorothiazide, reference compound], the “Mean blood pressure, Fasted” value in assay [1] (6 hour fast, day 8) is listed as 155. The “Mean blood pressure, Fed” value in assay [1] (fed, day 7) is recorded as 170.
Turning to `CCc1ccc(C(=CCO)COc2ccc(CC3SC(=O)NC3=O)cc2)nc1` (stereo not drawn) [Compound 13], the “Binding to PPARγ (Fluormone displacement signal)” value on PPARγ (1 μM compound) stood at 229; at PPARγ (3 μM compound), 230; at PPARγ (10 μM compound) it was 204; at PPARγ (50 μM compound), 148; on PPARγ (100 μM compound), 108; at PPARγ (.1 μM compound), 244. Besides, the “Binding to PPARγ (Fluormone displacement signal)” value on PPARγ (.3 μM compound) is listed as 243.
Turning to `CCc1ccc([C@H](O)COc2ccc(CC3(C)SC(=O)NC3=O)cc2)nc1` (stereo partly drawn) [Compound 9], the “Binding to PPARγ (Fluormone displacement signal)” value was determined as 239 on PPARγ (1 μM compound); 233 at PPARγ (3 μM compound); 234 on PPARγ (10 μM compound); 189 at PPARγ (50 μM compound); 164 at PPARγ (100 μM compound); 237 at PPARγ (.1 μM compound). Further, the “Binding to PPARγ (Fluormone displacement signal)” value at PPARγ (.3 μM compound) is on record as 237.
On to `CCc1ccc(CCOc2ccc(CC3(C)SC(=O)NC3=O)cc2)nc1` (single isomer, unassigned) [Compound 6], for which the “Binding to PPARγ (Fluormone displacement signal)” value at PPARγ (1 μM compound) was found to be 233; on PPARγ (3 μM compound), 223; on PPARγ (10 μM compound), 198; at PPARγ (50 μM compound), 126; at PPARγ (100 μM compound) it was 99; on PPARγ (.1 μM compound), 246. Further, the “Binding to PPARγ (Fluormone displacement signal)” value on PPARγ (.3 μM compound) is 246.
For `CCc1ccc(C(=CC(=O)OC)COc2ccc(CC3SC(=O)NC3=O)cc2)nc1` (stereo not drawn) [Compound 11], the “Binding to PPARγ (Fluormone displacement signal)” value on PPARγ (1 μM compound) is recorded as 232; at PPARγ (3 μM compound), 229; at PPARγ (10 μM compound), 165; at PPARγ (50 μM compound) it was 128; on PPARγ (100 μM compound) it was 78; on PPARγ (.1 μM compound) it was 230. The “Binding to PPARγ (Fluormone displacement signal)” value on PPARγ (.3 μM compound) came to 227.
As to `CCc1ccc(C(COc2ccc(CC3SC(=O)NC3=O)cc2)CC(=O)OC)nc1` (stereo not drawn) [Compound 12], the “Binding to PPARγ (Fluormone displacement signal)” value came out at 198 at PPARγ (1 μM compound); 155 at PPARγ (3 μM compound); 112 at PPARγ (10 μM compound); 80 at PPARγ (50 μM compound); 85 at PPARγ (100 μM compound); 243 at PPARγ (.1 μM compound). Besides, the “Binding to PPARγ (Fluormone displacement signal)” value at PPARγ (.3 μM compound) worked out at 222.
With `CCc1ccc(CCOc2ccc(CC3(C)SC(=O)NC3=O)cc2)nc1` (single isomer, unassigned) [Compound 4], the “Binding to PPARγ (Fluormone displacement signal)” value on PPARγ (1 μM compound) is recorded as 234; at PPARγ (3 μM compound) it was 224; at PPARγ (10 μM compound) it was 200; on PPARγ (50 μM compound), 122; at PPARγ (100 μM compound) it was 91; at PPARγ (.1 μM compound), 236. Also, the “Binding to PPARγ (Fluormone displacement signal)” value at PPARγ (.3 μM compound) is reported as 230.
Take `CCc1ccc([C@@H](O)COc2ccc(CC3(C)SC(=O)NC3=O)cc2)nc1` (stereo partly drawn) [Compound 8]: the “Binding to PPARγ (Fluormone displacement signal)” value at PPARγ (1 μM compound) came out at 239; at PPARγ (3 μM compound), 241; on PPARγ (10 μM compound), 233; at PPARγ (50 μM compound), 199; on PPARγ (100 μM compound), 186; at PPARγ (.1 μM compound), 237. For the same compound, the “Binding to PPARγ (Fluormone displacement signal)” value at PPARγ (.3 μM compound) was found to be 243.
In the case of `CCc1ccc(CCOc2ccc(CC3(C)SC(=O)NC3=O)cc2)nc1` (single isomer, unassigned) [Compound 7], the “Binding to PPARγ (Fluormone displacement signal)” value at PPARγ (1 μM compound) is 248; on PPARγ (3 μM compound), 237; on PPARγ (10 μM compound) it was 210; at PPARγ (50 μM compound), 144; at PPARγ (100 μM compound), 105; at PPARγ (.1 μM compound), 249. Moreover, the “Binding to PPARγ (Fluormone displacement signal)” value on PPARγ (.3 μM compound) is 246.

(Values after patent US8629159B2, “Thiazolidinedione analogues” (Metabolic Solutions Development Company, LLC, priority 2006, dated 2014).)
